Measured values reported in patent publication US11642319B2, “Targeted nanogels for urinary bladder therapies” (THE REGENTS OF THE UNIVERSITY OF COLORADO, priority 2017, dated 2023).
Ends that are not written are not given here.

Key:
collagen type I = collagen type I (Homo sapiens, UniProt P02452+P08123); assay: Peptide binding to collagen-coated wells; conditions: FIG. 5C
Procedure: (§1) The peptides CGKRK (SEQ ID NO:1) and KAREC (SEQ ID NO:2) were diluted two-fold in PBS at different concentrations and added to collagen- and heparin-coated wells preblocked with 5% bovine serum albumin. The plates were incubated at room temperature for 1 hour, washed 4 times with 200 μL PBS, and scanned at […] of 485 and 515 nm using a SpectraMax M5 fluorescence plate reader. The PBS background was subtracted from the data points, and the data were plotted with Prism.

[1] = Peptide binding to heparin-coated wells; conditions: FIG. 5B
Procedure: as §1

bladder urothelium = assay: Intravesical peptide binding to the mouse bladder with or without injury (in situ imaging, histology); type: in vivo, mice; conditions: for Binding in the bladder, in situ images: 15 minutes incubation; for Histological analysis of binding, entire bladder: 2× magnification
Procedure: Eight-to twelve-week-old female mice were anesthetized with isoflurane using a vaporizer machine at a flow rate of 1-3 L/min. The mice were placed on their backs and their urethra openings were pulled forward while squeezing the bladder to express urine. A lubricated 24 G Angiocath catheter with no needle was inserted via the urethra into the bladder cavity to wash the bladder once with […] PBS. To imitate a bladder injury subsequent to bladder cancer surgery, in which the urothelium is damaged after the removal of cancer tissues, the catheter tip was inserted completely and five circular motions were made in the apical part of the bladder. A 1 mL syringe with 100 μL of a CGKRK peptide (SEQ ID NO:1) solution (0.3 mg/mL in 80% PBS/20% DMSO) was attached to the catheter, and approximately 50 μL of the solution was injected into the bladder until the bladder was completely distended, as determined by abdominal palpitation. The catheter with attached syringe was left in the bladder for 15 minutes. After incubation, the peptide was removed via negative pressure, and the bladder was washed 5 times with PBS, with complete filling of the bladder each time. A Dino-Lite AM4113T-GRFBY camera equipped with 480- and 570-nm excitation filters and 510- and 610-nm long pass emission filters was used to take images of the bladder in situ. The abdominal cavity was opened by incision, and the bladder was imaged at 20 to 40 times magnification. The images were acquired at 1280×1024 resolution.
Freshly removed bladders were washed in PBS and snap frozen in liquid nitrogen. The tissue was embedded in optical cutting temperature (OCT) media and cryosectioned in consecutive 7-μm steps so that alternating sections were mounted on slides for fluorescence imaging and hematoxylin-eosin (H&E) staining, respectively. The tissues on each slide were fixed in a 10% buffered formalin solution, mounted with Vectashield™ antifade mounting medium with DAPI (for fluorescence imaging) or Permount™ medium (for H&E staining), and covered with a coverslip. The bladders imaged with a Nikon E600 upright fluorescence microscope with a SPOT RT color camera. The images in each fluorescence channel were acquired under saturation as 12-bit gray TIFF files, and H&E images were acquired as RGB images. Each low-magnification image covering the entire bladder area was analyzed with ImageJ software. The background was subtracted, and the integrated gray density per image was calculated. The intensities were plotted as individual values using Prism software.
Referring now to FIGS. 6A and 6B, the effect of mechanical injury on accumulation of peptides in the bladder is illustrated. Mice were treated by washing the bladder and inducing injury to the mucosal surface of the bladder; the peptide was then injected into the bladder and incubated 15 minutes; the bladder was then washed 5 times. […] The arrows in FIGS. 6A and 6B indicate the apical region of the bladder.
An investigation of the mechanisms of injury-induced accumulation of CGKRK (SEQ ID NO:1) was conducted. CGKRK (SEQ ID NO:1) was mixed with EDTA-treated blood and administered intravesically. […] Mice were pretreated with the anti-inflammatory agent dexamethasone prior to injury.

[2] = system: MB49 bladder carcinoma cell line; assay: Peptide uptake by MB49 bladder carcinoma cells; type: cell-based, murine
Procedure: An MB49 bladder carcinoma cell line was maintained in full Dulbecco's modified Eagle's medium (DMEM) with antibiotics and L-glutamine. Cells were seeded on 24 well plates for at least 24 hours to allow the cells to grow to confluence; each sample was done in triplicate. Samples were then incubated with one of free CGKRK (SEQ ID NO:1) and KAREC (SEQ ID NO:2), micelles of these two peptides, fluorescence TAT peptide (positive control), and PBS (negative control). After the incubation, all wells were washed with PBS three times to remove any free fluorescence molecules. Cells were detached from the wells with trypsin at 37° C. for 5 minutes. 0.3% Triton X-100 in PBS was added to the cells, and after 30 minutes of incubation, the solutions were centrifugated in an Eppendorf microcentrifuge at 15,000 rpm. The fluorescence intensity of the supernatant was measured using a fluorescence plate reader. For confocal imaging, cells were grown on glass chamber slides. Following the incubation experiment, cells were imaged with a Nikon MR Confocal STORM super-resolution microscope.

Chain of collagen type I (P02452 162-1218 limits assumed): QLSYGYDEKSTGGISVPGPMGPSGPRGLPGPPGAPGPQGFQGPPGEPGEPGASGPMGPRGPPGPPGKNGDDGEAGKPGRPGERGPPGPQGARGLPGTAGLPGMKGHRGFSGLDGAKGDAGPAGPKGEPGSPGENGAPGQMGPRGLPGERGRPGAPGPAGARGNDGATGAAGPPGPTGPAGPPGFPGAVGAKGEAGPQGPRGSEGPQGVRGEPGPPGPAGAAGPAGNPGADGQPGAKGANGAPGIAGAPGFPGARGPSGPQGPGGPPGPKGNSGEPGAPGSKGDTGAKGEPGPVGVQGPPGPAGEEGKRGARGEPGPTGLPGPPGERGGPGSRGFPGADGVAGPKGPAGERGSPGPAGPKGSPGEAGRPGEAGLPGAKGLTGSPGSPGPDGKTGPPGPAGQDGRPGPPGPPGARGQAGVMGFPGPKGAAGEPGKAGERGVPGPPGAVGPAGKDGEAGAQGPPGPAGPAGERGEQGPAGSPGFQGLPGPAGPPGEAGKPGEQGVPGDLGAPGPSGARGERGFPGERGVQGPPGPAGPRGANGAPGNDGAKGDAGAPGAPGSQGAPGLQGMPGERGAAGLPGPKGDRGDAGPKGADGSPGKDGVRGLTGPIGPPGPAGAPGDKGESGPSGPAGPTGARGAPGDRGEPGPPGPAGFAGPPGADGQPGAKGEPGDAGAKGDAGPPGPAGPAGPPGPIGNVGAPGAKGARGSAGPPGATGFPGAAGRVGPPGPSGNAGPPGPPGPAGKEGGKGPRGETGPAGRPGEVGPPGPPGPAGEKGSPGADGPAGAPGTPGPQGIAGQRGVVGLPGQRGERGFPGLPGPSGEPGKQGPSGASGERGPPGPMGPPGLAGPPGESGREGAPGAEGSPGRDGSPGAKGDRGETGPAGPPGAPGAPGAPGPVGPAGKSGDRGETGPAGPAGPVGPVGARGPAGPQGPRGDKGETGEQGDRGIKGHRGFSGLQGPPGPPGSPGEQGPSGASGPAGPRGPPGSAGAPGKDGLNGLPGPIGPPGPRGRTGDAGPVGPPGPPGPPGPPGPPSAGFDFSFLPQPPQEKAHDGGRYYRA
Chain of collagen type I (P08123 80-1119 limits assumed): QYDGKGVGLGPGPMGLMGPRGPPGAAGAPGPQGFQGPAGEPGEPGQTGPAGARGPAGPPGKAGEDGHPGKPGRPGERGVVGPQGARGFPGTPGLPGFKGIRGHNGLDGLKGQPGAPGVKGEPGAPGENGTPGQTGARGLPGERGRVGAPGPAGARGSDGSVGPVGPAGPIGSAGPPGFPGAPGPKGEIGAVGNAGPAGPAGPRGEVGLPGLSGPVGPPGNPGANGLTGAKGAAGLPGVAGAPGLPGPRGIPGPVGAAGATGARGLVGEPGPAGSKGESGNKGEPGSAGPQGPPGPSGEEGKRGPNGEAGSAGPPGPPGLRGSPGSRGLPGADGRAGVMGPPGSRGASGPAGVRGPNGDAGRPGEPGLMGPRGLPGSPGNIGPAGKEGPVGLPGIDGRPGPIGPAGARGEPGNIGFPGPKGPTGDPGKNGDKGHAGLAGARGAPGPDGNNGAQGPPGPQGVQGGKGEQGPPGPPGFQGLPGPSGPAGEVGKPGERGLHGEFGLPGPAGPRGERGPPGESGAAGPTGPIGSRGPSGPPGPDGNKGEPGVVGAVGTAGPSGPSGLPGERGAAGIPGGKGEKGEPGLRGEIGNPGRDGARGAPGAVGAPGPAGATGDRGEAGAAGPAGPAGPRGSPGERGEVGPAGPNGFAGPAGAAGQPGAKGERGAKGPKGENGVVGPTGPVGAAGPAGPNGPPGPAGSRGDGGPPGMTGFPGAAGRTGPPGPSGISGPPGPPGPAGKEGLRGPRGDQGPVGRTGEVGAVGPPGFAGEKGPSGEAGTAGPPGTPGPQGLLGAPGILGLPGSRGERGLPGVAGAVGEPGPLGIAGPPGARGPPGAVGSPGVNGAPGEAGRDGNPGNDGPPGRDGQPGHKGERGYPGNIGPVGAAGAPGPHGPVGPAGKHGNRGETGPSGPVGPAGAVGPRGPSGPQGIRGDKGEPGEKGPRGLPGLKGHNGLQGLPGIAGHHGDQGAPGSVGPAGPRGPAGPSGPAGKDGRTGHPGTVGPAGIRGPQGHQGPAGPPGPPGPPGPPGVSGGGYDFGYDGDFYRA

Kinetics of binding to collagen (curve fit) (collagen type I)	Kinetics of binding to heparin (curve fit) [1]	Substance	Binding to collagen type I (collagen type I; versus KAREC)	Binding to heparin ([1]; versus KAREC)	Accumulation after chemical disruption of the urothelium barrier with ethanol (bladder urothelium; 2× and 20× magnification)	Binding in the bladder, in situ images (bladder urothelium; absence of focal injury)	Binding in the bladder, in situ images (bladder urothelium; after mechanical injury)	Histological analysis of binding, entire bladder (bladder urothelium; injured bladder, FIG. 7)	Histological analysis of binding, tissue layers (bladder urothelium; injured bladder, 20× magnification, FIG. 7)	Injury-induced binding after dexamethasone pretreatment (bladder urothelium; mice pretreated with dexamethasone prior to injury)	Binding when mixed with EDTA-treated blood (bladder urothelium; no injury, intravesical)	Cellular uptake, accumulation in the cytoplasm (confocal images) [2]	Peptide uptake quantified by fluorescence spectroscopy ([2]; FIG. 5A, versus KAREC)
saturation kinetics	linear kinetics for other binding	CGKRK (also: fluorescent label) [cell-penetrating pentapeptide, fluorescently labelled in the tests]	more efficient binding to both heparin and collagen type I	more efficient binding to both heparin and collagen type I	widespread accumulation	no binding	efficient binding after injury	widespread binding	accumulation of the peptide in the urothelium (U) and some penetration into the muscle layer (ML)	did not block injury-induced binding	Blood did not induce binding in the absence of injury	significant accumulation	significantly more accumulation
linear kinetics for other binding	linear kinetics for other binding	KAREC [comparison peptide tested beside CGKRK, reference compound]					limited binding at the injury site	less efficient and less widespread accumulation					
